Measurements reported in ChEMBL document CHEMBL1130871, “Korundamine A, a novel HIV-inhibitory and antimalarial "hybrid" naphthylisoquinoline alkaloid heterodimer from Ancistrocladus korupensis” (Bioorg Med Chem Lett, 1998).
In brackets after ≈: the same amount, converted by molar mass.

Legend:
Plasmodium falciparum = experiment: In vitro antimalarial activity against Plasmodium falciparum; assay type: functional, organism-based
CCRF-CEM = experiment: Compound was tested for anti HIV-1 activity against CEM-SS/OC100 cell/virus strain; assay type: functional, cell-based; conditions: Homo sapiens
Homo sapiens [1] = organism: Homo sapiens; experiment: Compound was tested for anti HIV-1 activity against MT2/G9106 cell/virus strain; assay type: functional, organism-based
[2] = system: Human immunodeficiency virus 1; experiment: Compound was tested for inhibition of cytopathic effects against human immunodeficiency virus type 1 (HIV-1); assay type: functional, organism-based
Homo sapiens [3] = organism: Homo sapiens; experiment: Compound was tested for anti HIV-1 activity against MT2/A17 cell/virus strain; assay type: functional, organism-based

COc1c2c(cc(O)c1-c1cc(-c3cc(-c4c(O)cc(O)c5c4C[C@@H](C)N[C@@H]5C)c4cc(C)cc(OC)c4c3O)c(O)c3c(OC)cc(C)cc13)C[C@@H](C)N=C2C
IC50 (Plasmodium falciparum): 1.1 µg/mL (≈ 1.43 µM)
EC50 (CCRF-CEM): 8 µM
EC50 (Homo sapiens [1]): 6 µM
EC50 [2]: 2000 nM
EC50 (Homo sapiens [3]): 10 µM
